In publication PMC11876601 (Molecular Systems Biology, 2025):
“And” between values parts separate entries of the source, which are not always exact repeats. Equal entries are not always repeated. Where two headings read alike, the source gives them in different places.

Columns and labels:
Suit2-07 cells = assay: Cell proliferation assay, GEM + ATR inhibitor (Incucyte confluence, 72 h); type: cell-based, human; conditions: for EC50: Homo sapiens, experiment GEM (GEM alone, in the series of the ATRi named in column Drug); for Response: R1, in % (unit assumed);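 for all read-outs here: Suit2-07 cells grown in 96-well plates at 37 °C, 5% CO2, raw 72 h confluence taken without normalizing to starting confluence, each experiment done in triplicate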
Experimental: (§1) Cells were seeded at 5000 cells/well into 96-well flat bottom plates (Eppendorf) and allowed to attach overnight. […] Cells were incubated for 72 h at 37 °C and 5% CO2. Cell confluence readouts at 72 h were either normalized to their initial confluence using the Incucyte software (AsPC-1) or used without prior normalization (all others). […] Each experiment was performed in triplicates, the data was plotted as mean ± standard deviation (s.d.).

PANC-1 cells = assay: as above; conditions: for EC50: Homo sapiens, experiment GEM (GEM alone, in the series of the ATRi named in column Drug); for Response: ATRi 0 nM (GEM), R1-R3;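 for EC50: in combination experiments GEM is titrated while ATRi is held at a fixed sub-EC50 dose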;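 for all read-outs here: PANC-1 confluence at 72 h taken as raw values, not normalized to starting confluence, with each experiment run in triplicate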
Experimental: as §1

[1] = PANC-1, experiment GEM (GEM alone), plateau of fitted curve, ratio drug/vehicle confluence

Question: Which EC50 (Suit2-07 cells; 72 h, Suit2-07, -log10 of EC50 [M], read-out: pEC50 (converted)) does the source give for `Nc1ccn([C@@H]2O[C@H](CO)[C@@H](O)C2(F)F)c(=O)n1` [GEM, Gemcitabine] here?
Answer: The EC50 was 8.32e-09 M.

Question: And the EC50 (Suit2-07 cells; 72 h, Suit2-07, mean (one replicate), read-out: EC50 mean)?
Answer: Its EC50 is 8.26e-09 M.

Question: And the EC50 (Suit2-07 cells; 72 h, Suit2-07, replicate R1, read-out: EC50)?
Answer: Its EC50 is 8.26e-09 M.

Question: And the EC50 (Suit2-07 cells; Suit2-07, -log10 of EC50 [M], read-out: pEC50 (converted))?
Answer: The EC50 was 1.05e-08 M.

Question: And the Response (Suit2-07 cells; Suit2-07, GEM 1 nM, ATRi 0 nM (GEM))?
Answer: Its Response is 97.46.

Question: And the Response (Suit2-07 cells; Suit2-07, GEM 3 nM, ATRi 0 nM (GEM))?
Answer: Its Response is 93.41.

Question: What about the Response (Suit2-07 cells; Suit2-07, GEM 10 nM, ATRi 0 nM (GEM)) of the same molecule?
Answer: The Response was 45.15.

Question: And the Response (Suit2-07 cells; Suit2-07, GEM 30 nM, ATRi 0 nM (GEM))?
Answer: Its Response is 20.11.

Question: And the Response (Suit2-07 cells; Suit2-07, GEM 3000 nM, ATRi 0 nM (GEM))?
Answer: Its Response is 10.86.

Question: What about the Response (Suit2-07 cells; Suit2-07, experiment GEM, GEM 1 nM, ATRi 0 nM) of the same molecule?
Answer: Its Response is 98.60 and 97.96 and 97.60.

Question: What about the Response (Suit2-07 cells; Suit2-07, experiment GEM, GEM 3 nM, ATRi 0 nM) of the same molecule?
Answer: Its Response is 96.04 and 96.69 and 98.44.

Question: And the Response (Suit2-07 cells; Suit2-07, experiment GEM, GEM 10 nM, ATRi 0 nM)?
Answer: Its Response is 49.03 and 57.12 and 55.81.

Question: What about the Response (Suit2-07 cells; Suit2-07, experiment GEM, GEM 30 nM, ATRi 0 nM) of the same molecule?
Answer: Its Response is 23.93 and 25.24 and 25.44.

Question: What about the Response (Suit2-07 cells; Suit2-07, experiment GEM, GEM 100 nM, ATRi 0 nM) of the same molecule?
Answer: Its Response is 15.01.

Question: What about the Response (Suit2-07 cells; Suit2-07, experiment GEM, GEM 300 nM, ATRi 0 nM) of the same molecule?
Answer: Its Response is 14.46.

Question: What about the Response (Suit2-07 cells; Suit2-07, experiment GEM, GEM 1000 nM, ATRi 0 nM) of the same molecule?
Answer: The Response was 10.89.

Question: What about the Response (Suit2-07 cells; Suit2-07, experiment GEM, GEM 3000 nM, ATRi 0 nM) of the same molecule?
Answer: The Response was 10.34.

Question: And the EC50 (PANC-1 cells; PANC-1, PANC-1, replicates R1-R3)?
Answer: The EC50 was 5.84e-08 M.

Question: And the EC50 (PANC-1 cells; PANC-1, read-out: pEC50, PANC-1 (converted), -log10 of EC50 [M])?
Answer: The EC50 was 5.89e-08 M.

Question: What about the Response (PANC-1 cells; PANC-1, GEM 1 nM) of the same molecule?
Answer: The Response was 55.73 and 93.02 and 87.94.

Question: And the Response (PANC-1 cells; PANC-1, GEM 3 nM)?
Answer: Its Response is 54.62 and 89.30 and 88.72.

Question: What about the Response (PANC-1 cells; PANC-1, GEM 10 nM) of the same molecule?
Answer: The Response was 65.10 and 93.01 and 80.93.

Question: And the Response (PANC-1 cells; PANC-1, GEM 30 nM)?
Answer: Its Response is 43.73 and 76.60 and 68.58.

Question: And the Response (PANC-1 cells; PANC-1, GEM 300 nM)?
Answer: The Response was 45.56 and 60.97 and 63.22.

Question: And the Response (PANC-1 cells; PANC-1, GEM 1000 nM)?
Answer: Its Response is 38.26 and 66.03 and 59.27.

Question: What about the Response (PANC-1 cells; PANC-1, GEM 3000 nM) of the same molecule?
Answer: Its Response is 35.94 and 56.55 and 61.30.

Question: And the Curve bottom (PANC-1 cells; [1])?
Answer: The Curve bottom was 1.02 and 1.05 and 1.06 and 0.91 and 1.00 and 0.98.

Question: And the Curve top (PANC-1 cells; [1])?
Answer: Its Curve top is 0.74.
